{"source": "patent US5112858A", "about": "“Antibiotic, aranorosin, a microbiological process for the preparation thereof, and the use thereof as a pharmaceutical” (Hoechst Aktiengesellschaft, priority 1988, dated 1992)", "key": {"Solubility": {"experiment": "Solubility", "type": "physicochemical"}, "E. coli 1507 E": {"test_system": "E. coli 1507 E", "experiment": "MIC against bacteria and fungi (Table I)", "type": "cell-based", "conditions": "Escherichia coli, read-out: Minimum inhibitory concentration (MIC)", "excerpt": "(§1) The minimum inhibitory concentrations of the new antibiotic aranorosin required to inhibit various strains of bacteria and fungi are listed in Table I."}, "[1]": {"test_system": "Klebsiella aerogenes 1522 E", "experiment": "MIC against bacteria and fungi (Table I)", "type": "cell-based", "conditions": "read-out: Minimum inhibitory concentration (MIC)", "excerpt": "as §1"}, "Botrytis cinerea": {"test_system": "Botrytis cinerea", "experiment": "MIC against bacteria and fungi (Table I)", "type": "cell-based", "conditions": "read-out: Minimum inhibitory concentration (MIC)", "excerpt": "as §1"}, "Cercospora beticola": {"test_system": "Cercospora beticola", "experiment": "MIC against bacteria and fungi (Table I)", "type": "cell-based", "conditions": "read-out: Minimum inhibitory concentration (MIC)", "excerpt": "as §1"}, "[2]": {"test_system": "Staphylococcus aureus R 85", "experiment": "MIC against bacteria and fungi (Table I)", "type": "cell-based", "conditions": "R85, read-out: Minimum inhibitory concentration (MIC)", "excerpt": "as §1"}, "E. coli 055": {"test_system": "E. coli 055", "experiment": "MIC against bacteria and fungi (Table I)", "type": "cell-based", "conditions": "Escherichia coli, read-out: Minimum inhibitory concentration (MIC)", "excerpt": "as §1"}, "Streptococcus faecalis": {"test_system": "Streptococcus faecalis", "experiment": "MIC against bacteria and fungi (Table I)", "type": "cell-based", "conditions": "Enterococcus faecalis, read-out: Minimum inhibitory concentration (MIC)", "excerpt": "as §1"}, "[3]": {"test_system": "Staphylococcus aureus 503", "experiment": "MIC against bacteria and fungi (Table I)", "type": "cell-based", "conditions": "read-out: Minimum inhibitory concentration (MIC)", "excerpt": "as §1"}, "Aspergillus niger": {"test_system": "Aspergillus niger", "experiment": "MIC against bacteria and fungi (Table I)", "type": "cell-based", "conditions": "read-out: Minimum inhibitory concentration (MIC)", "excerpt": "as §1"}, "Bacillus subtilis": {"test_system": "Bacillus subtilis", "experiment": "MIC against bacteria and fungi (Table I)", "type": "cell-based", "conditions": "read-out: Minimum inhibitory concentration (MIC)", "excerpt": "as §1"}, "Salmonella typhimurium": {"test_system": "Salmonella typhimurium", "experiment": "MIC against bacteria and fungi (Table I)", "type": "cell-based", "conditions": "Salmonella enterica, read-out: Minimum inhibitory concentration (MIC)", "excerpt": "as §1"}, "Penicillium italicum": {"test_system": "Penicillium italicum", "experiment": "MIC against bacteria and fungi (Table I)", "type": "cell-based", "conditions": "read-out: Minimum inhibitory concentration (MIC)", "excerpt": "as §1"}, "[4]": {"test_system": "Enterobacter cloacae P 99", "experiment": "MIC against bacteria and fungi (Table I)", "type": "cell-based", "conditions": "P99, read-out: Minimum inhibitory concentration (MIC)", "excerpt": "as §1"}, "E. coli TEM": {"test_system": "E. coli TEM", "experiment": "MIC against bacteria and fungi (Table I)", "type": "cell-based", "conditions": "Escherichia coli, read-out: Minimum inhibitory concentration (MIC)", "excerpt": "as §1"}, "Sarcina lutea": {"test_system": "Sarcina lutea", "experiment": "MIC against bacteria and fungi (Table I)", "type": "cell-based", "conditions": "Micrococcus luteus, read-out: Minimum inhibitory concentration (MIC)", "excerpt": "as §1"}, "[5]": {"test_system": "Streptococcus pyogenes 77 A", "experiment": "MIC against bacteria and fungi (Table I)", "type": "cell-based", "conditions": "read-out: Minimum inhibitory concentration (MIC)", "excerpt": "as §1"}, "Microspora gypseum": {"test_system": "Microspora gypseum", "experiment": "MIC against bacteria and fungi (Table I)", "type": "cell-based", "conditions": "read-out: Minimum inhibitory concentration (MIC)", "excerpt": "as §1"}, "[6]": {"test_system": "Klebsiella aerogenes 1082 E", "experiment": "MIC against bacteria and fungi (Table I)", "type": "cell-based", "conditions": "read-out: Minimum inhibitory concentration (MIC)", "excerpt": "as §1"}, "[7]": {"test_system": "Staphylococcus aureus 285", "experiment": "MIC against bacteria and fungi (Table I)", "type": "cell-based", "conditions": "read-out: Minimum inhibitory concentration (MIC)", "excerpt": "as §1"}, "[8]": {"test_system": "Staphylococcus aureus 209 P", "experiment": "MIC against bacteria and fungi (Table I)", "type": "cell-based", "conditions": "read-out: Minimum inhibitory concentration (MIC)", "excerpt": "as §1"}, "E. coli DC O": {"test_system": "E. coli DC O", "experiment": "MIC against bacteria and fungi (Table I)", "type": "cell-based", "conditions": "Escherichia coli, read-out: Minimum inhibitory concentration (MIC)", "excerpt": "as §1"}, "[9]": {"test_system": "Pseudomonas aeruginosa 1592 E", "experiment": "MIC against bacteria and fungi (Table I)", "type": "cell-based", "conditions": "read-out: Minimum inhibitory concentration (MIC)", "excerpt": "as §1"}, "[10]": {"test_system": "Streptococcus pyogenes 308A", "experiment": "MIC against bacteria and fungi (Table I)", "type": "cell-based", "conditions": "read-out: Minimum inhibitory concentration (MIC)", "excerpt": "as §1"}, "E. coli Ese 2231": {"test_system": "E. coli Ese 2231", "experiment": "MIC against bacteria and fungi (Table I)", "type": "cell-based", "conditions": "Escherichia coli, ESE2231, read-out: Minimum inhibitory concentration (MIC)", "excerpt": "as §1"}, "[11]": {"test_system": "Pseudomonas aeruginosa 1771", "experiment": "MIC against bacteria and fungi (Table I)", "type": "cell-based", "conditions": "read-out: Minimum inhibitory concentration (MIC)", "excerpt": "as §1"}, "[12]": {"test_system": "Staphylococcus aureus 20204", "experiment": "MIC against bacteria and fungi (Table I)", "type": "cell-based", "conditions": "read-out: Minimum inhibitory concentration (MIC)", "excerpt": "as §1"}, "Saccaromyces cerevisiae": {"test_system": "Saccaromyces cerevisiae", "experiment": "MIC against bacteria and fungi (Table I)", "type": "cell-based", "conditions": "read-out: Minimum inhibitory concentration (MIC)", "excerpt": "as §1"}, "[13]": {"test_system": "Staphylococcus aureus SG 511", "experiment": "MIC against bacteria and fungi (Table I)", "type": "cell-based", "conditions": "SG511, read-out: Minimum inhibitory concentration (MIC)", "excerpt": "as §1"}, "Candida albicans": {"test_system": "Candida albicans", "experiment": "MIC against bacteria and fungi (Table I)", "type": "cell-based", "conditions": "read-out: Minimum inhibitory concentration (MIC)", "excerpt": "as §1"}, "[14]": {"test_system": "Pseudomonas aeruginosa 1771 M", "experiment": "MIC against bacteria and fungi (Table I)", "type": "cell-based", "conditions": "read-out: Minimum inhibitory concentration (MIC)", "excerpt": "as §1"}, "[15]": {"test_system": "Enterobacter cloacae 1321 E", "experiment": "MIC against bacteria and fungi (Table I)", "type": "cell-based", "conditions": "read-out: Minimum inhibitory concentration (MIC)", "excerpt": "as §1"}, "[16]": {"test_system": "Pseudomonas aeruginosa ATCC 9027", "experiment": "MIC against bacteria and fungi (Table I)", "type": "cell-based", "conditions": "ATCC9027, read-out: Minimum inhibitory concentration (MIC)", "excerpt": "as §1"}, "E. coli DC 2": {"test_system": "E. coli DC 2", "experiment": "MIC against bacteria and fungi (Table I)", "type": "cell-based", "conditions": "Escherichia coli, DC2, read-out: Minimum inhibitory concentration (MIC)", "excerpt": "as §1"}, "[17]": {"test_system": "Gram-positive and Gram-negative bacteria as well as yeasts and filamentous fungi", "experiment": "Antibacterial and antifungal activity (summary statement)", "type": "cell-based", "excerpt": "as §1"}, "[18]": {"test_system": "malignant tumors and leukemias", "experiment": "Cytostatic activity (statement)", "type": "cell-based", "conditions": "general statement, no data given"}}}
{"smiles": "CCCCCCC(C)/C=C(C)/C=C/C(=O)NC1CC2(OC1O)C1OC1C(=O)C1OC12", "note": "(stereo not shown) [aranorosin]", "values": [{"measurement": "Solubility", "setting": "Solubility; in benzene", "value": "sparingly soluble"}, {"measurement": "Solubility", "setting": "Solubility; in diethyl ether, chloroform, acetone, ethyl acetate, dimethyl sulfoxide and methanol", "value": "soluble"}, {"measurement": "Solubility", "setting": "Solubility; in petroleum ether", "value": "Insoluble"}, {"measurement": "Solubility", "setting": "Solubility; in water", "value": "Insoluble"}, {"measurement": "MIC", "setting": "E. coli 1507 E", "value": 100, "unit": "µg/mL"}, {"measurement": "MIC", "setting": "[1]", "value": 100, "unit": "µg/mL"}, {"measurement": "MIC", "setting": "Botrytis cinerea", "value": 30, "unit": "µg/mL"}, {"measurement": "MIC", "setting": "Cercospora beticola", "value": 3, "unit": "µg/mL"}, {"measurement": "MIC", "setting": "[2]", "value": 1.5, "unit": "µg/mL"}, {"measurement": "MIC", "setting": "E. coli 055", "value": 100, "unit": "µg/mL"}, {"measurement": "MIC", "setting": "Streptococcus faecalis", "value": 3, "unit": "µg/mL"}, {"measurement": "MIC", "setting": "[3]", "value": 0.78, "unit": "µg/mL"}, {"measurement": "MIC", "setting": "Aspergillus niger", "value": 7.5, "unit": "µg/mL"}, {"measurement": "MIC", "setting": "Bacillus subtilis", "value": 1.5, "unit": "µg/mL"}, {"measurement": "MIC", "setting": "Salmonella typhimurium", "value": 50, "unit": "µg/mL"}, {"measurement": "MIC", "setting": "Penicillium italicum", "value": 30, "unit": "µg/mL"}, {"measurement": "MIC", "setting": "[4]", "value": 100, "unit": "µg/mL"}, {"measurement": "MIC", "setting": "E. coli TEM", "value": 100, "unit": "µg/mL"}, {"measurement": "MIC", "setting": "Sarcina lutea", "value": 1.5, "unit": "µg/mL"}, {"measurement": "MIC", "setting": "[5]", "value": 0.78, "unit": "µg/mL"}, {"measurement": "MIC", "setting": "Microspora gypseum", "value": 3, "unit": "µg/mL"}, {"measurement": "MIC", "setting": "[6]", "value": 50, "unit": "µg/mL"}, {"measurement": "MIC", "setting": "[7]", "value": 0.78, "unit": "µg/mL"}, {"measurement": "MIC", "setting": "[8]", "value": 1.5, "unit": "µg/mL"}, {"measurement": "MIC", "setting": "E. coli DC O", "value": 100, "unit": "µg/mL"}, {"measurement": "MIC", "setting": "[9]", "value": "> 100", "unit": "µg/mL"}, {"measurement": "MIC", "setting": "[10]", "value": 0.78, "unit": "µg/mL"}, {"measurement": "MIC", "setting": "E. coli Ese 2231", "value": "> 200", "unit": "µg/mL"}, {"measurement": "MIC", "setting": "[11]", "value": "> 100", "unit": "µg/mL"}, {"measurement": "MIC", "setting": "[12]", "value": 1.5, "unit": "µg/mL"}, {"measurement": "MIC", "setting": "Saccaromyces cerevisiae", "value": 500, "unit": "µg/mL"}, {"measurement": "MIC", "setting": "[13]", "value": 0.78, "unit": "µg/mL"}, {"measurement": "MIC", "setting": "Candida albicans", "value": 30, "unit": "µg/mL"}, {"measurement": "MIC", "setting": "[14]", "value": 50, "unit": "µg/mL"}, {"measurement": "MIC", "setting": "[15]", "value": 100, "unit": "µg/mL"}, {"measurement": "MIC", "setting": "[16]", "value": "> 100", "unit": "µg/mL"}, {"measurement": "MIC", "setting": "E. coli DC 2", "value": 25, "unit": "µg/mL"}, {"measurement": "effectiveness against bacteria, yeasts and filamentous fungi", "setting": "[17]; conclusion from Table I", "value": "effective against Gram-positive and Gram-negative bacteria as well as yeasts and filamentous fungi"}, {"measurement": "bactericidal and fungicidal properties", "setting": "[17]; general statement", "value": "has bactericidal and fungicidal properties"}, {"measurement": "cytostatic properties", "setting": "[18]", "value": "has cytostatic properties"}]}
